Reference: patent publication US6353029B1, “Storage stable tretinoin and 4-hydroxyanisole containing topical composition” (Bristol-Myers Squibb Company, priority 2000, dated 2002)
Read-outs that look alike come from different tables or passages of the source.

Columns and labels:
[1] = Physical and chemical stability of tretinoin/4-HA cream compositions; type: physicochemical; conditions: creams with other emulsifiers and thickeners added, containing 4-HA
Excerpt: In an effort to develop a pharmaceutically elegant dermatological composition containing tretinoin and 4-HA and having long term storage stability (as hereinafter defined), the present inventors incorporated the tretinoin and 4-HA in cream compositions. The oil-in-water emulsion based creams broke. Most likely, this was due to the 4-HA component as it is soluble in both the oil phase and water phase.

[2] = cited from earlier work

## CC1=C(/C=C/C(C)=C/C=C/C(C)=C/C(=O)O)C(C)(C)CCC1 [tretinoin, all-trans retinoic acid]
[1]
  stability of tretinoin: very unstable
[2]; aqueous gel with Cremophor RH40 as solubilizing agent
  shelf life of tretinoin: 3 months
[2]; aqueous gel without Cremophor RH40
  shelf life of tretinoin: 10 months
[2]; propylene glycol-alcohol solution at 25° C, 0.05% tretinoin
  shelf life of tretinoin: 6.7 months
